From US9528155B2, “In vitro method for determining immunotoxicity of a compound” (UNIVERSITEIT MAASTRICHT, priority 2012, dated 2016)
Read-outs that look alike come from different tables or passages of the source.

Columns and labels:
Assay type in all cases: cell-based, human
[1] = test system: CHAC1; assay: Fluidigm multiplex real-time quantitative PCR of marker gene CHAC1 in exposed Jurkat cells
[2] = test system: HMGCS1; assay: Fluidigm multiplex real-time quantitative PCR of marker gene HMGCS1 in exposed Jurkat cells
[3] = test system: CRIM1; assay: Fluidigm multiplex real-time quantitative PCR of marker gene CRIM1 in exposed Jurkat cells
[4] = test system: ABCA1; assay: Fluidigm multiplex real-time quantitative PCR of marker gene ABCA1 in exposed Jurkat cells
[5] = Jurkat cells, 6 h exposure at sub-cytotoxic exposure conc. of Tables 1/2, vs vehicle control, N=3, below -1.0 = underexpression

| Compound | Expression levels of marker genes upon exposure: CHAC1 (Fold Change) [1, 5] | Expression levels of marker genes upon exposure: HMGCS1 (Fold Change) [2, 5] | Expression levels of marker genes upon exposure: CRIM1 (Fold Change) [3, 5] | Expression levels of marker genes upon exposure: ABCA1 (Fold Change) [4, 5] | Expression levels of marker genes upon exposure: CHAC1 (Fold Change) [1] | Expression levels of marker genes upon exposure: HMGCS1 (Fold Change) [2] | Expression levels of marker genes upon exposure: CRIM1 (Fold Change) [3] | Expression levels of marker genes upon exposure: ABCA1 (Fold Change) [4] |
| --- | --- | --- | --- | --- | --- | --- | --- | --- |
| C[C@]12C=CC(=O)C=C1CC[C@@H]1[C@@H]2[C@@H](O)C[C@@]2(C)[C@H]1CC[C@]2(O)C(=O)CO [PRD, prednisolone] | 2.7 ± 1.9 | 1.7 ± 0.1 | 3.9 ± 0.6 | 1.0 ± 0.6 | – | – | – | – |
| COc1c(C)c2c(c(O)c1C/C=C(\C)CCC(=O)O)C(=O)OC2 [MPA, mycophenolic acid] | 1.5 ± 0.9 | – | – | 1.1 ± 0.7 | – | – | – | – |
| Cn1cnc([N+](=O)[O-])c1Sc1ncnc2nc[nH]c12 [AZA, azathioprine] | 2.3 ± 2.1 | 1.1 ± 0.2 | 1.8 ± 1.0 | – | – | – | – | – |
| CC1(C)S[C@@H]2[C@H](NC(=O)[C@H](N)c3ccccc3)C(=O)N2[C@H]1C(=O)O [AMP, ampicillin] | – | 1.4 ± 0.3 | 1.2 ± 1.1 | – | – | – | – | – |
| O=P1(N(CCCl)CCCl)NCCCO1 (stereo not shown) [CP S9, cyclophosphamide] | – | 2.0 ± 1 | 1.1 ± 0.3 | 1.9 ± 1.6 | – | – | – | – |
| Clc1cc(Cl)c(-c2cc(Cl)c(Cl)cc2Cl)cc1Cl [PCB153, polychlorinated biphenyl 153] | – | – | – | – | 1.2 ± 3 | 2.0 ± 1.2 | −1.2 ± 2.2 | 1.1 ± 1.4 |
| tributyltin oxide [TBTO] | −1.1 ± 0.4 | −1.5 ± 0.1 | −1.1 ± 0.8 | 30.9 ± 8.5 | – | – | – | – |
| ochratoxin A, S9-treated [OTA S9] | −13.8 ± 0.0 | 2.0 ± 1.0 | −1.1 ± 0.5 | 1.3 ± 1.8 | – | – | – | – |
| [Cl][Cd][Cl] [CdCl2, cadmium dichloride] | 7.0 ± 1.5 | 2.2 ± 1.3 | 4.3 ± 2.0 | 1.3 ± 1.3 | – | – | – | – |
| O=S(=O)(O)C(F)(F)C(F)(F)C(F)(F)C(F)(F)C(F)(F)C(F)(F)C(F)(F)C(F)(F)F [PFOS] | – | – | – | – | 1.8 ± 1.5 | −1.1 ± 0.2 | −1.5 ± 0.4 | −4.3 ± 0.2 |
| O=[N+]([O-])c1ccc2ccc3cccc4ccc1c2c34 [1-NPR, 1-Nitropyrene] | – | – | – | – | – | – | 1.3 ± 1.6 | 1.3 ± 1.2 |
| O=[N+]([O-])[O-].[Ag+] [AgNO3, silver nitrate] | −1.1 ± 0.5 | 1.6 ± 0.9 | 1.1 ± 0.3 | 1.5 ± 1.2 | – | – | – | – |
| OC[C@@H](O)[C@@H](O)[C@H](O)[C@H](O)CO [MANNITOL] | – | 1.2 ± 0.3 | 1.1 ± 0.7 | – | – | – | – | – |
| CCC(=O)Nc1ccc(Cl)c(Cl)c1 [PROP, N-(3,4-Dichloro-phenyl)propanamide] | – | – | 1.4 ± 0.1 | 1.3 ± 1 | – | – | – | – |
| Cn1c(N)nc2c3cccnc3ccc21 [IQ, 2-amino-3-methyl-3H-imidazo[4,5-F]quinoline] | – | – | – | – | – | – | 1.1 ± 1.8 | 1.0 ± 2.2 |
| CN(C)N=O [DMNA, dimethylnitrosamine] | – | – | – | – | −1.5 ± 1.5 | 1.2 ± 1.1 | −12 ± 1.5 | −1.8± |
| Cl[C@H]1[C@H](Cl)[C@@H](Cl)[C@@H](Cl)[C@H](Cl)[C@H]1Cl [LIN, Gamma-hexachlorocyclohexane] | 10.2 ± 7.6 | −2.4 ± 0 | 2.3 ± 0.1 | 3.4 ± 3.6 | – | – | – | – |
| CCCCC(CC)COC(=O)c1ccccc1C(=O)O (stereo not shown) [MEHP, mono-(2-ethylhexyl) phthalate] | – | – | – | – | 3.5 ± 2.1 | 1.6 ± 0.9 | −1 ± 0.6 | −1.2 ± 0.1 |
| CCOC(N)=O [urethane] | 1.2 ± 0.4 | 1.2 ± 0.3 | 1.1 ± 0.5 | – | – | – | – | – |
| arsenic trioxide [As2O3] | 41.2 ± 32.5 | −1.1 ± 0.2 | 2.4 ± 1.1 | 1.4 ± 0.3 | – | – | – | – |
| CCCCC(CC)COC(=O)c1ccccc1C(=O)OCC(CC)CCCC (stereo not shown) [DEHP, Bis(2-ethylhexyl)phthalate] | – | 1.2 ± 0.1 | 1.9 ± 1.5 | – | – | – | – | – |
| C[C@@H]1Cc2c(Cl)cc(C(=O)N[C@@H](Cc3ccccc3)C(=O)O)c(O)c2C(=O)O1 [OTA, ochratoxin A] | 32.9 ± 14.5 | −2.5 ± 0.1 | −1.3 ± 0.1 | −2.2 ± 0.1 | – | – | – | – |
| Sc1ncnc2nc[nH]c12 [6MP, 6-mercaptopurine] | 1.8 ± 1.1 | – | 1.0 ± 0.6 | – | – | – | – | – |
| CCO [EtOH, ethanol] | 34.3 ± 2.3 | – | – | 1.2 ± 1.0 | – | – | – | – |
| CC1=C[C@H]2O[C@@H]3[C@H](O)C[C@](C)([C@@]2(CO)[C@H](O)C1=O)[C@]31CO1 [DON, deoxynivalenol] | −1.4 ± 0.4 | −1.5 ± 0.3 | 1.4 ± 0.4 | −1.9 ± 0.2 | – | – | – | – |
| C[C@@H]1C[C@H]2[C@@H]3CCC4=CC(=O)C=C[C@]4(C)[C@@]3(F)[C@@H](O)C[C@]2(C)[C@@]1(O)C(=O)CO [DEX, dexamethasone] | – | 1.0 ± 0.1 | 1.4 ± 0.6 | – | – | – | – | – |
| CN(Cc1cnc2nc(N)nc(N)c2n1)c1ccc(C(=O)N[C@@H](CCC(=O)O)C(=O)O)cc1 [MTX, methotrexate] | – | – | 1.4 ± 1.1 | – | – | – | – | – |
| C=CC(=O)NCNC(=O)C=C [MBA, N,N′-methylenebisacrylamide] | – | – | – | – | 1.5 ± 2.1 | 1.0 ± 1.1 | 1.1 ± 1.9 | – |
